# Measurements as given in PubChem BioAssay (NCI).
#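 Exposure lasted 48 hours, with cells grown in 96-well plates and compounds tested at five concentrations. GI50 = concentration required for 50% inhibition of growth. The concentration for full growth arrest is given as TGI.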
# How the values were obtained:
# Assay in all cases: NCI anticancer screen, dose series, 48 h
# [1] = tested on: CAKI-1 renal
# [2] = tested on: NCI-H23 lung
# [3] = tested on: TK-10 renal
# [4] = tested on: SK-MEL-5 melanoma
# [5] = tested on: UACC-62 melanoma
# [6] = tested on: OVCAR-3 ovarian
# [7] = tested on: DU-145 prostate
# [8] = tested on: SK-OV-3 ovarian
# [9] = tested on: HCT-15 colon
# [10] = tested on: OVCAR-8 ovarian
# [11] = tested on: LOX IMVI melanoma
# [12] = tested on: MDA-MB-435
# [13] = tested on: HT29 colon
# [14] = tested on: PC-3 prostate
# [15] = tested on: SNB-75 CNS
# [16] = tested on: K-562 leukemia
# [17] = tested on: NCI-H226 lung
# [18] = tested on: U251 CNS
# [19] = tested on: M14 melanoma
# [20] = tested on: UO-31 renal
# [21] = tested on: HL-60(TB) leukemia
# [22] = tested on: HCT-116 colon
# [23] = tested on: COLO 205 colon
# [24] = tested on: T-47D breast
# [25] = tested on: HOP-92 NSCLC
# [26] = tested on: MALME-3M melanoma
# [27] = tested on: SN12C renal
# [28] = tested on: RXF 393 renal
# [29] = tested on: MDA-MB-231 breast
# [30] = tested on: KM12 colon
# [31] = tested on: SNB-19 CNS
# [32] = tested on: RPMI-8226 leukemia
# [33] = tested on: HCC-2998 colon
# [34] = tested on: A498 renal
# [35] = tested on: HOP-62 NSCLC
# [36] = tested on: IGROV1 ovarian
# [37] = tested on: NCI/ADR-RES ovarian
# [38] = tested on: SF-268 CNS
# [39] = tested on: CCRF-CEM leukemia
# [40] = tested on: SF-539 CNS
# [41] = tested on: 786-0 renal
# [42] = tested on: SK-MEL-2 melanoma
# [43] = tested on: SF-295 CNS
# [44] = tested on: UACC-257 melanoma
# [45] = tested on: SK-MEL-28 melanoma
# [46] = tested on: NCI-H460 lung
# [47] = tested on: OVCAR-5 ovarian
# [48] = tested on: BT-549 breast
# [49] = tested on: ACHN renal
# [50] = tested on: SW-620 colon
# [51] = tested on: MCF7 breast
# [52] = tested on: A549 NSCLC
# [53] = tested on: EKVX NSCLC
# [54] = tested on: MOLT-4 leukemia
# [55] = tested on: NCI-H522 lung
# [56] = tested on: OVCAR-4 ovarian
# [57] = tested on: HS 578T breast
# [58] = tested on: SR leukemia
smiles,measurement,setting,value
COc1ccc([C@H]2[C@H](O)C(=O)N2c2cc(OC)c(OC)c(OC)c2)cc1Cl,GI50,[1],< 0.01 µM
same,TGI,[1],> 43.1 µM
same,GI50,[2],0.0106 µM
same,TGI,[2],> 100 µM
same,GI50,[3],> 100 µM
same,TGI,[3],> 100 µM
same,GI50,[4],< 0.01 µM
same,TGI,[4],0.0365 µM
same,GI50,[5],< 0.01 µM
same,TGI,[5],> 100 µM
same,GI50,[6],< 0.01 µM
same,GI50,[7],< 0.0128 µM
same,TGI,[7],> 100 µM
same,GI50,[8],< 0.0187 µM
same,TGI,[8],> 100 µM
same,GI50,[9],< 0.0118 µM
same,TGI,[9],> 100 µM
same,GI50,[10],< 0.0141 µM
same,GI50,[11],< 0.01 µM
same,TGI,[11],> 100 µM
same,GI50,[12],< 0.01 µM
same,TGI,[12],< 0.0104 µM
same,GI50,[13],< 0.01 µM
same,GI50,[14],< 0.0168 µM
same,TGI,[14],> 100 µM
same,GI50,[15],< 0.01 µM
same,TGI,[15],> 100 µM
same,GI50,[16],< 0.01 µM
same,TGI,[16],> 100 µM
same,GI50,[17],< 0.01 µM
same,TGI,[17],50.5 µM
same,GI50,[18],0.0186 µM
same,TGI,[18],> 100 µM
same,GI50,[19],< 0.0128 µM
same,TGI,[19],> 100 µM
same,GI50,[20],< 0.0192 µM
same,TGI,[20],> 100 µM
same,GI50,[21],< 0.01 µM
same,GI50,[22],< 0.01 µM
same,TGI,[22],> 62.6 µM
same,GI50,[23],< 0.0149 µM
same,TGI,[23],< 0.0225 µM
same,GI50,[24],> 38.4 µM
same,TGI,[24],> 100 µM
same,GI50,[25],0.828 µM
same,TGI,[25],> 100 µM
same,GI50,[26],< 0.0149 µM
same,TGI,[26],> 100 µM
same,GI50,[27],< 0.01 µM
same,TGI,[27],> 100 µM
same,GI50,[28],< 0.01 µM
same,TGI,[28],> 100 µM
same,GI50,[29],< 0.0161 µM
same,TGI,[29],> 100 µM
same,GI50,[30],< 0.0113 µM
same,TGI,[30],> 100 µM
same,GI50,[31],< 0.0241 µM
same,TGI,[31],> 100 µM
same,GI50,[32],< 0.0112 µM
same,TGI,[32],> 35.4 µM
same,GI50,[33],< 0.0188 µM
same,GI50,[34],> 59.8 µM
same,TGI,[34],> 100 µM
same,GI50,[35],< 0.0114 µM
same,TGI,[35],> 100 µM
same,GI50,[36],< 0.0111 µM
same,TGI,[36],> 100 µM
same,GI50,[37],< 0.0136 µM
same,GI50,[38],< 0.0241 µM
same,TGI,[38],> 100 µM
same,GI50,[39],< 0.01 µM
same,TGI,[39],> 100 µM
same,GI50,[40],< 0.01 µM
same,GI50,[41],< 0.0155 µM
same,TGI,[41],> 100 µM
same,GI50,[42],0.0319 µM
same,TGI,[42],> 100 µM
same,GI50,[43],< 0.01 µM
same,TGI,[43],> 100 µM
same,TGI,[44],> 100 µM
same,GI50,[45],< 0.0434 µM
same,TGI,[45],> 100 µM
same,GI50,[46],< 0.0127 µM
same,GI50,[47],< 0.012 µM
same,TGI,[47],> 100 µM
same,GI50,[48],< 0.0125 µM
same,TGI,[48],0.718 µM
same,GI50,[49],< 0.01 µM
same,TGI,[49],> 100 µM
same,GI50,[50],< 0.01 µM
same,TGI,[50],> 100 µM
same,GI50,[51],< 0.01 µM
same,TGI,[51],> 100 µM
same,GI50,[52],< 0.0141 µM
same,TGI,[52],> 100 µM
same,TGI,[53],> 100 µM
same,GI50,[54],< 0.017 µM
same,TGI,[54],> 100 µM
same,GI50,[55],< 0.01 µM
same,TGI,[55],< 0.0105 µM
same,GI50,[56],0.442 µM
same,TGI,[56],> 100 µM
same,GI50,[57],< 0.0158 µM
same,TGI,[57],> 100 µM
same,GI50,[58],< 0.01 µM
same,TGI,[58],> 87.2 µM
CCC(C)[C@H]1C(=O)O[C@H](C(C)C)C(=O)N(C)[C@@H](C(C)C)C(=O)O[C@H](C(C)C)C(=O)N(C)[C@@H](C(C)C)C(=O)O[C@H](C(C)C)C(=O)N1C (stereo partly drawn),GI50,[2],1.68 µM
same,TGI,[2],> 10 µM
same,GI50,[3],2.58 µM
same,TGI,[3],> 10 µM
same,GI50,[4],0.761 µM
same,TGI,[4],2.92 µM
same,GI50,[5],0.631 µM
same,TGI,[5],> 10 µM
same,GI50,[6],0.704 µM
same,TGI,[6],> 10 µM
same,GI50,[8],2.47 µM
same,TGI,[8],7.59 µM
same,GI50,[9],2.7 µM
same,TGI,[9],> 10 µM
same,GI50,[10],2.11 µM
same,TGI,[10],> 10 µM
same,GI50,[11],1.94 µM
same,TGI,[11],> 10 µM
same,GI50,[12],2.46 µM
same,TGI,[12],> 10 µM
same,GI50,[13],2.57 µM
same,TGI,[13],> 10 µM
same,GI50,[14],1.56 µM
same,TGI,[14],> 10 µM
same,GI50,[15],2.75 µM
same,TGI,[15],> 10 µM
same,GI50,[16],1.46 µM
same,TGI,[16],> 10 µM
same,GI50,[17],3.62 µM
same,TGI,[17],> 10 µM
same,GI50,[18],2.19 µM
same,TGI,[18],> 10 µM
same,GI50,[19],1.66 µM
same,TGI,[19],> 10 µM
same,GI50,[20],1.03 µM
same,TGI,[20],> 10 µM
same,GI50,[21],2.46 µM
same,TGI,[21],5.26 µM
same,GI50,[22],2.08 µM
same,TGI,[22],> 10 µM
same,GI50,[23],1.23 µM
same,TGI,[23],2.94 µM
same,GI50,[24],1.08 µM
same,TGI,[24],7.81 µM
same,GI50,[25],1.21 µM
same,TGI,[25],6.01 µM
same,GI50,[26],0.577 µM
same,TGI,[26],> 10 µM
same,GI50,[27],1.72 µM
same,TGI,[27],> 10 µM
same,GI50,[28],2.73 µM
same,TGI,[28],> 10 µM
same,GI50,[29],2.56 µM
same,TGI,[29],8.15 µM
same,GI50,[30],1.57 µM
same,TGI,[30],> 10 µM
same,GI50,[31],2.07 µM
same,TGI,[31],> 10 µM
same,GI50,[32],0.457 µM
same,TGI,[32],4.93 µM
same,GI50,[33],2.67 µM
same,TGI,[33],> 10 µM
same,GI50,[34],2.61 µM
same,TGI,[34],9.71 µM
same,GI50,[35],3.52 µM
same,TGI,[35],> 10 µM
same,GI50,[36],3.51 µM
same,TGI,[36],> 10 µM
same,GI50,[37],2.12 µM
same,TGI,[37],> 10 µM
same,GI50,[38],3.85 µM
same,TGI,[38],> 10 µM
same,GI50,[39],3 µM
same,TGI,[39],> 10 µM
same,GI50,[40],3.65 µM
same,TGI,[40],> 10 µM
same,GI50,[41],3.09 µM
same,TGI,[41],> 10 µM
same,GI50,[42],3.81 µM
same,TGI,[42],> 10 µM
same,GI50,[43],0.717 µM
same,TGI,[43],> 10 µM
same,GI50,[44],2.08 µM
same,TGI,[44],> 10 µM
same,GI50,[45],2.72 µM
same,TGI,[45],> 10 µM
same,GI50,[46],1.65 µM
same,TGI,[46],> 10 µM
same,GI50,[47],3.21 µM
same,TGI,[47],> 10 µM
same,GI50,[48],2.5 µM
same,TGI,[48],> 10 µM
same,GI50,[49],0.788 µM
same,TGI,[49],> 10 µM
same,GI50,[50],3.1 µM
same,TGI,[50],> 10 µM
same,GI50,[51],1.26 µM
same,TGI,[51],> 10 µM
same,GI50,[52],3 µM
same,TGI,[52],> 10 µM
same,GI50,[53],2.1 µM
same,TGI,[53],> 10 µM
same,GI50,[54],3.61 µM
same,TGI,[54],9.97 µM
same,GI50,[55],1.61 µM
same,TGI,[55],> 10 µM
same,GI50,[56],2.01 µM
same,TGI,[56],> 10 µM
same,GI50,[57],4.64 µM
same,TGI,[57],> 10 µM
same,GI50,[58],3.67 µM
same,TGI,[58],> 10 µM
